US12281080B2, “Quinoline-based compounds and methods of inhibiting CDK8/19” (University of South Carolina, priority 2018, dated 2025)

What was measured:
CDK19 = CDK19 (Homo sapiens (Human), UniProt Q9BWU1); assay: DiscoverX Kd assay
RET = RET (Homo sapiens (Human), UniProt P07949); assay: KINOMEscan scanMAX; format: binding; conditions: 2000 nM; read-out: Percent Control
STK33 = STK33 (Homo sapiens (Human), UniProt Q9BYT3); assay: KINOMEscan scanMAX; format: binding; conditions: 2000 nM; read-out: Percent Control
PIM1 = PIM1 (Homo sapiens (Human), UniProt P11309); assay: KINOMEscan scanMAX; format: binding; conditions: 2000 nM; read-out: Percent Control
EGFR(T790M) = EGFR(T790M) (Homo sapiens (Human), UniProt P00533, T790M); assay: KINOMEscan scanMAX; format: binding; conditions: 2000 nM; read-out: Percent Control
[1] = molecular target: TYK2(JH2domain-pseudokinase) (Homo sapiens (Human), UniProt P29597); assay: KINOMEscan scanMAX; format: binding; conditions: 2000 nM; read-out: Percent Control
TSSK3 = TSSK3 (Homo sapiens (Human), UniProt Q96PN8); assay: KINOMEscan scanMAX; format: binding; conditions: 2000 nM; read-out: Percent Control
MAP4K4 = MAP4K4 (Homo sapiens (Human), UniProt O95819); assay: KINOMEscan scanMAX; format: binding; conditions: 2000 nM; read-out: Percent Control
LYN = LYN (Homo sapiens (Human), UniProt P07948); assay: KINOMEscan scanMAX; format: binding; conditions: 2000 nM; read-out: Percent Control
ASK2 (MAP3K6) = ASK2 (MAP3K6) (Homo sapiens (Human), UniProt O95382); assay: KINOMEscan scanMAX; format: binding; conditions: 2000 nM; read-out: Percent Control
ZAP70 = ZAP70 (Homo sapiens (Human), UniProt P43403); assay: KINOMEscan scanMAX; format: binding; conditions: 2000 nM; read-out: Percent Control
ERK1 (MAPK3) = ERK1 (MAPK3) (Homo sapiens (Human), UniProt P27361); assay: KINOMEscan scanMAX; format: binding; conditions: 2000 nM; read-out: Percent Control
PRKD1 = PRKD1 (Homo sapiens (Human), UniProt Q15139); assay: KINOMEscan scanMAX; format: binding; conditions: 2000 nM; read-out: Percent Control
ACVR2B = ACVR2B (Homo sapiens (Human), UniProt Q13705); assay: KINOMEscan scanMAX; format: binding; conditions: 2000 nM; read-out: Percent Control
PCTK1 (CDK16) = PCTK1 (CDK16) (Homo sapiens (Human), UniProt Q00536); assay: KINOMEscan scanMAX; format: binding; conditions: 2000 nM; read-out: Percent Control
CDK9 = CDK9 (Homo sapiens (Human), UniProt P50750); assay: KINOMEscan scanMAX; format: binding; conditions: 2000 nM; read-out: Percent Control
PIK3CA(Q546K) = PIK3CA(Q546K) (Homo sapiens (Human), UniProt P42336, Q546K); assay: KINOMEscan scanMAX; format: binding; conditions: 2000 nM; read-out: Percent Control
WNK1 = WNK1 (Homo sapiens (Human), UniProt Q9H4A3); assay: KINOMEscan scanMAX; format: binding; conditions: 2000 nM; read-out: Percent Control
HIPK4 = HIPK4 (Homo sapiens (Human), UniProt Q8NE63); assay: KINOMEscan scanMAX; format: binding; conditions: 2000 nM; read-out: Percent Control
[2] = molecular target: ABL1(Y253F)-phosphorylated (Homo sapiens (Human), UniProt P00519, Y253F); assay: KINOMEscan scanMAX; format: binding; conditions: 2000 nM; read-out: Percent Control
C4-2 xenografts = assay: PSA mRNA in C4-2 xenografts in mice; format: in vivo; conditions: 40 mg/kg orally daily for 4 days, male NcrNU mice
Description: CDK8/19 inhibition decreases the expression of certain androgen-receptor (AR) inducible genes including PSA, the most common marker of prostate cancer, and the growth of castration-refractory prostate cancers (CRPC). The in vivo effects of Senexin C on PSA expression by C4-2 cells were analyzed after treatment of male NcrNU mice bearing C4-2 xenografts (grouped based on tumor sizes) for 4 days at 40 mg/kg administered orally daily.

MEK5 (MAP2K5) = MEK5 (MAP2K5) (Homo sapiens (Human), UniProt Q13163); assay: KINOMEscan scanMAX; format: binding; conditions: 2000 nM; read-out: Percent Control
EPHB3 = EPHB3 (Homo sapiens (Human), UniProt P54753); assay: KINOMEscan scanMAX; format: binding; conditions: 2000 nM; read-out: Percent Control
Chain of EPHB3 (P54753 34-998): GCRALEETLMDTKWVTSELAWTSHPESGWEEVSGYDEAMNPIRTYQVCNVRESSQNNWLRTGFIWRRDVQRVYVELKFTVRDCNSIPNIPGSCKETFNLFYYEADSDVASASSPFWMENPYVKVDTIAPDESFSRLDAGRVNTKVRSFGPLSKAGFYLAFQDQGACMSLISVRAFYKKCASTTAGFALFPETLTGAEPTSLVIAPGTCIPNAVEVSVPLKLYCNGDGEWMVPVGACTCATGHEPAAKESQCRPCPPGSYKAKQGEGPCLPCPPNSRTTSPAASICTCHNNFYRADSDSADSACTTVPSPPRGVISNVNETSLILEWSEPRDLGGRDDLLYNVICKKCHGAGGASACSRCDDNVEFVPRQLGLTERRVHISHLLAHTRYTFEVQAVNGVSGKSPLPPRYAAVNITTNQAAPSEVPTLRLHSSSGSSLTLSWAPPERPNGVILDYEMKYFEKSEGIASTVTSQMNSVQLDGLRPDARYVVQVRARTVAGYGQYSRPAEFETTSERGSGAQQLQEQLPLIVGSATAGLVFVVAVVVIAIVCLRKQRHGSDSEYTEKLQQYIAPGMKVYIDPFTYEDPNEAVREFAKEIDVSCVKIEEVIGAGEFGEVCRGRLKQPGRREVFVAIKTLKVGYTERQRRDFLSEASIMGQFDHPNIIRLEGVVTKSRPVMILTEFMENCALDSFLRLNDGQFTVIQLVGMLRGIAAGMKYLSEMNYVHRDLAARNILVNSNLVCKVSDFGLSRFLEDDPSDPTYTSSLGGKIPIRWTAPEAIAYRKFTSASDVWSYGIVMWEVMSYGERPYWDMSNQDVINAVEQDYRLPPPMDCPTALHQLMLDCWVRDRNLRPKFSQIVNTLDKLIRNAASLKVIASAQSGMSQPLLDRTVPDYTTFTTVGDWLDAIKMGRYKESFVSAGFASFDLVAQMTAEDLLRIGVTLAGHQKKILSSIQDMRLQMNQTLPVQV

NDR1 (STK38) = NDR1 (STK38) (Homo sapiens (Human), UniProt Q15208); assay: KINOMEscan scanMAX; format: binding; conditions: 2000 nM; read-out: Percent Control
FLT3(D835Y) = FLT3(D835Y) (Homo sapiens (Human), UniProt P36888, D835Y); assay: KINOMEscan scanMAX; format: binding; conditions: 2000 nM; read-out: Percent Control
BRSK1 = BRSK1 (Homo sapiens (Human), UniProt Q8TDC3); assay: KINOMEscan scanMAX; format: binding; conditions: 2000 nM; read-out: Percent Control
Chain of BRSK1 (Q8TDC3 whole entry): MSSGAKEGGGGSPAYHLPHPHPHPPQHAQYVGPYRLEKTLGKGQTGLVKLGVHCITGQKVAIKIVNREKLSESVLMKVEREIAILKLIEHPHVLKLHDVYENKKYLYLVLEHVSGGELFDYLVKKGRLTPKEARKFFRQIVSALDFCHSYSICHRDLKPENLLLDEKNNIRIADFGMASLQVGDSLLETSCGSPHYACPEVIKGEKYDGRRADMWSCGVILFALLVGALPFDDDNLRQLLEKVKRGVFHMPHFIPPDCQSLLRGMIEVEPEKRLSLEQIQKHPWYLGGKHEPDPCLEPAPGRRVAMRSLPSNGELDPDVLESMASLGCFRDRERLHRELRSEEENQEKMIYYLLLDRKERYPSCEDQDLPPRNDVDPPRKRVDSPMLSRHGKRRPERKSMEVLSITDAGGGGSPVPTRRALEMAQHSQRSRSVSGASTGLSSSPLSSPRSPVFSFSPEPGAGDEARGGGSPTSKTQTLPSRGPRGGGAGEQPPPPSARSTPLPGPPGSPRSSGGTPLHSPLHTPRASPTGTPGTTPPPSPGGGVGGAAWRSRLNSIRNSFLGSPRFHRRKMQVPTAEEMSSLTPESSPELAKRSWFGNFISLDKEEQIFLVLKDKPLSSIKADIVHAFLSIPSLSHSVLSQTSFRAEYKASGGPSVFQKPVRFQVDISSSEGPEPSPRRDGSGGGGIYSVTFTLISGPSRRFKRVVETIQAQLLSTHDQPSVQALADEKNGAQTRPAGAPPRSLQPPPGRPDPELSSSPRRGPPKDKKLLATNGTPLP

GSK3B = GSK3B (Homo sapiens (Human), UniProt P49841); assay: KINOMEscan scanMAX; format: binding; conditions: 2000 nM; read-out: Percent Control
PRKCQ = PRKCQ (Homo sapiens (Human), UniProt Q04759); assay: KINOMEscan scanMAX; format: binding; conditions: 2000 nM; read-out: Percent Control
Chain of PRKCQ (Q04759 whole entry): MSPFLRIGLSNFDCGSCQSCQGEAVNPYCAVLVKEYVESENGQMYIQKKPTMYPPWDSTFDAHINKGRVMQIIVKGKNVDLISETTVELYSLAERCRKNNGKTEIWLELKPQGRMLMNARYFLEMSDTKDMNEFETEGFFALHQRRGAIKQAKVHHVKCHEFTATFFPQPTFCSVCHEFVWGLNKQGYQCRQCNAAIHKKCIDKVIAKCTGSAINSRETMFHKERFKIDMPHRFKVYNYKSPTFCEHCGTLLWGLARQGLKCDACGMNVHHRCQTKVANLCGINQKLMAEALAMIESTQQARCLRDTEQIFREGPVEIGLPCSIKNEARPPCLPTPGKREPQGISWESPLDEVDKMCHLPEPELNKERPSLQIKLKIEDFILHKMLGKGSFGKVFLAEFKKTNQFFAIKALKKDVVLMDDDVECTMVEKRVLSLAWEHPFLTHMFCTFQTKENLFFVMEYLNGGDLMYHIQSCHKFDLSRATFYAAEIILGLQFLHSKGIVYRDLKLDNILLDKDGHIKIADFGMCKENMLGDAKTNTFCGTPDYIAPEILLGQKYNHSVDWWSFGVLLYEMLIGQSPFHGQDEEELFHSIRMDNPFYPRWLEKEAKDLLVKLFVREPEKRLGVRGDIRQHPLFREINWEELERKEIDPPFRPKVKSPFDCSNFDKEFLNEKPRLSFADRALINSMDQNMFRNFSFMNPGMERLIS

PAK6 = PAK6 (Homo sapiens (Human), UniProt Q9NQU5); assay: KINOMEscan scanMAX; format: binding; conditions: 2000 nM; read-out: Percent Control
LIMK2 = LIMK2 (Homo sapiens (Human), UniProt P53671); assay: KINOMEscan scanMAX; format: binding; conditions: 2000 nM; read-out: Percent Control
Chain of LIMK2 (P53671 whole entry): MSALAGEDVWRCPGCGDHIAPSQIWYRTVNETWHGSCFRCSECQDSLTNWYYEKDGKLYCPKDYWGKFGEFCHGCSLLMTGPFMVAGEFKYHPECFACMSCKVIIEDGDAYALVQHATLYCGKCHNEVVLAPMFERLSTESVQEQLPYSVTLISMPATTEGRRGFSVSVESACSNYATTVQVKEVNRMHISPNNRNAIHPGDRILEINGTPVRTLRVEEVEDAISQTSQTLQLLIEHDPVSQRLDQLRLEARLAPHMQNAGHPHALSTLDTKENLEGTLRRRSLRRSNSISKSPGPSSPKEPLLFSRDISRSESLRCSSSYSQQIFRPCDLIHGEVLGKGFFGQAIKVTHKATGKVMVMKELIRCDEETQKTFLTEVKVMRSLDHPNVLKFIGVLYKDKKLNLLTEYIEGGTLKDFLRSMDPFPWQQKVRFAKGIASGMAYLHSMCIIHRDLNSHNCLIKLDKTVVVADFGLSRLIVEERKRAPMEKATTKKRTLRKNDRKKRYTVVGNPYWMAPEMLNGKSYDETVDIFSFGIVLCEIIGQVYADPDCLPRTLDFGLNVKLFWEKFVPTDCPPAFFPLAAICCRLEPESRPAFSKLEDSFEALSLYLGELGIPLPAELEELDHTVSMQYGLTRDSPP

GAK = GAK (Homo sapiens (Human), UniProt O14976); assay: KINOMEscan scanMAX; format: binding; conditions: 2000 nM; read-out: Percent Control
Chain of GAK (O14976 whole entry): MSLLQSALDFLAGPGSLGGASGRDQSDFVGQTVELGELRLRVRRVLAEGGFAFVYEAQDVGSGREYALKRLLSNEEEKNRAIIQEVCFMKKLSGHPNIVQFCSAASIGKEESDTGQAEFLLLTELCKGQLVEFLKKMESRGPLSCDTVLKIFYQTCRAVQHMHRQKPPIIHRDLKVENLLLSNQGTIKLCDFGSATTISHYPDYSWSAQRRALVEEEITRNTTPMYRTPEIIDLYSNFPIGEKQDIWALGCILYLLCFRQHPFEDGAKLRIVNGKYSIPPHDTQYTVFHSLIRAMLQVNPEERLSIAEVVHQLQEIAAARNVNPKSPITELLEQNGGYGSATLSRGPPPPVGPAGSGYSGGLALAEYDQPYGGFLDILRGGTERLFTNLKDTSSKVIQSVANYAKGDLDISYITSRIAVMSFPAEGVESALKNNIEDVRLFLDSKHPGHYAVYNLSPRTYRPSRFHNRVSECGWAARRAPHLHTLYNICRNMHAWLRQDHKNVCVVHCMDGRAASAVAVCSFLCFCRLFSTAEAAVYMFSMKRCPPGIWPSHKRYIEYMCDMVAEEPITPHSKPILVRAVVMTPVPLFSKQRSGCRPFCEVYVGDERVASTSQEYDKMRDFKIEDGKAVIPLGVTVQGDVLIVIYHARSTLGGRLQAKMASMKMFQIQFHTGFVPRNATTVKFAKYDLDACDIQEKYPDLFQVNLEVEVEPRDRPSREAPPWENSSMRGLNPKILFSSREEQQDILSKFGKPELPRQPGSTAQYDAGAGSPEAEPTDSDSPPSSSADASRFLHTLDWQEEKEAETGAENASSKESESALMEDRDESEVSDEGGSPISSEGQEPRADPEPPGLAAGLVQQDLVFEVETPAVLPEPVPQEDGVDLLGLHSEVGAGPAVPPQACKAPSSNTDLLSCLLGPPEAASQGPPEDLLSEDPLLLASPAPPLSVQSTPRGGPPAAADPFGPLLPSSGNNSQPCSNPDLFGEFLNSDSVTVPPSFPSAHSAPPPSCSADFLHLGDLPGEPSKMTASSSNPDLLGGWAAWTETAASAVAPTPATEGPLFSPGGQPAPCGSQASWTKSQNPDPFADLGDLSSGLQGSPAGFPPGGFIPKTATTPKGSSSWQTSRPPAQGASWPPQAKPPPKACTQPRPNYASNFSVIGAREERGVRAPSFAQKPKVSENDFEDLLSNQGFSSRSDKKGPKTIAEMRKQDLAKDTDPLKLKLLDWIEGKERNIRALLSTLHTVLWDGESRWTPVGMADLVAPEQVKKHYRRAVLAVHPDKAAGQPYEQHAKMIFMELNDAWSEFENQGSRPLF

PRKD2 = PRKD2 (Homo sapiens (Human), UniProt Q9BZL6); assay: KINOMEscan scanMAX; format: binding; conditions: 2000 nM; read-out: Percent Control
MYLK2 = MYLK2 (Homo sapiens (Human), UniProt Q9H1R3); assay: KINOMEscan scanMAX; format: binding; conditions: 2000 nM; read-out: Percent Control
ROCK2 = ROCK2 (Homo sapiens (Human), UniProt O75116); assay: KINOMEscan scanMAX; format: binding; conditions: 2000 nM; read-out: Percent Control
MAPKAPK5 = MAPKAPK5 (Homo sapiens (Human), UniProt Q8IW41); assay: KINOMEscan scanMAX; format: binding; conditions: 2000 nM; read-out: Percent Control
Chain of MAPKAPK5 (Q8IW41 whole entry): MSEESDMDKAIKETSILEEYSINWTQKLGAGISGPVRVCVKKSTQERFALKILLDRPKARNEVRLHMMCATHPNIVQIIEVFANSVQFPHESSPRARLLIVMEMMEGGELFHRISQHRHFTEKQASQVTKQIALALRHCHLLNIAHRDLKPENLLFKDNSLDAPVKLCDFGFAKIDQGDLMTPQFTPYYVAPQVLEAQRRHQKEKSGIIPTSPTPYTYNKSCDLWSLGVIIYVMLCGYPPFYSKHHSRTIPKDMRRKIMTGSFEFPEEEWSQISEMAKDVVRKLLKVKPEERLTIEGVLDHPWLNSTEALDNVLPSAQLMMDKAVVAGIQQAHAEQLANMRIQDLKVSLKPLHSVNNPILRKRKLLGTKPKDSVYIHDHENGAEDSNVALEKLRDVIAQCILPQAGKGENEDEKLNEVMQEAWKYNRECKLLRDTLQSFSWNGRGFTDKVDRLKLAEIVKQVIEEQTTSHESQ

ICK = ICK (Homo sapiens (Human), UniProt Q9UPZ9); assay: KINOMEscan scanMAX; format: binding; conditions: 2000 nM; read-out: Percent Control
KIT(L576P) = KIT(L576P) (Homo sapiens (Human), UniProt P10721, L576P); assay: KINOMEscan scanMAX; format: binding; conditions: 2000 nM; read-out: Percent Control
CLK3 = CLK3 (Homo sapiens (Human), UniProt P49761); assay: KINOMEscan scanMAX; format: binding; conditions: 2000 nM; read-out: Percent Control

With `CN1CCN(C(=O)c2ccc3cc(CCNc4ccnc5ccc(C#N)cc45)ccc3c2)CC1` [compound 6148, 4-((2-(6-(4-methylpiperazine-1-carbonyl)naphthalen-2-yl)ethyl)amino)quinoline-6-carbonitrile] the Kd (CDK19) was 44 nM, the remaining binding at 2 µM (RET) was 100% and the remaining binding at 2 µM (STK33) was 93%. The remaining binding at 2 µM (PIM1) was 62%, the remaining binding at 2 µM (EGFR(T790M)) was 93% and the remaining binding at 2 µM [1] was 63%. It also gave a remaining binding at 2 µM (TSSK3) of 81%, a remaining binding at 2 µM (MAP4K4) of 93% and a remaining binding at 2 µM (LYN) of 88%. It also gave a remaining binding at 2 µM (ASK2 (MAP3K6)) of 79%, a remaining binding at 2 µM (ZAP70) of 81% and a remaining binding at 2 µM (ERK1 (MAPK3)) of 95%. It also gave a remaining binding at 2 µM (PRKD1) of 90%, a remaining binding at 2 µM (ACVR2B) of 90% and a remaining binding at 2 µM (PCTK1 (CDK16)) of 68%. It also gave a remaining binding at 2 µM (CDK9) of 97%, a remaining binding at 2 µM (PIK3CA(Q546K)) of 70% and a remaining binding at 2 µM (WNK1) of 72%. For the same compound, the remaining binding at 2 µM (HIPK4) was 75%, the remaining binding at 2 µM [2] was 74% and the “PSA mRNA levels in the tumor” value (C4-2 xenografts) was “strongly decreased”. For the same compound, the remaining binding at 2 µM (MEK5 (MAP2K5)) was 63%, the remaining binding at 2 µM (EPHB3) was 81% and the remaining binding at 2 µM (NDR1 (STK38)) was 79%. The remaining binding at 2 µM (FLT3(D835Y)) was 73%, the remaining binding at 2 µM (BRSK1) was 100% and the remaining binding at 2 µM (GSK3B) was 67%. The remaining binding at 2 µM (PRKCQ) was 100%, the remaining binding at 2 µM (PAK6) was 90% and the remaining binding at 2 µM (LIMK2) was 93%. For the same compound, the remaining binding at 2 µM (GAK) was 100%, the remaining binding at 2 µM (PRKD2) was 88% and the remaining binding at 2 µM (MYLK2) was 91%. The remaining binding at 2 µM (ROCK2) was 71%, the remaining binding at 2 µM (MAPKAPK5) was 62% and the remaining binding at 2 µM (ICK) was 54%. It also gave a remaining binding at 2 µM (KIT(L576P)) of 100% and a remaining binding at 2 µM (CLK3) of 65%.
